The test system of one data set is human keratinocytes. The data set is described as follows: LD50 in human keratinocytes. The class given is cell-based. Here is the method: Cell Proliferation Assay. HaCaT cells (2.5×10^4 cells/well) were seeded in 24-well plates. After 24 hours, the medium was removed and the test compounds were added at different concentrations. At 48 hours after the addition of the compounds, cell proliferation was determined by counting the number of viable cells in a hemocytometer. Cell viability was determined by the Trypan blue vital dye exclusion technique. IC50 values on the increase in the number of cells over the number of seeded cells were calculated at 48 hours after treatment.

The test system of data set [1] is NF-κB. The data set is described as follows: EMSA of NF-κB DNA-binding activity in human endothelial cells. It is filed as cell-based. As to conditions: Endothelial cell. On the procedure:
(§1) Cell Lines and Treatments. Human keratinocytes (HaCaT) were grown routinely in DMEM supplemented with 10% FBS and 2 mM L-glutamine at 37° C. in a 5% CO2 humidified atmosphere. Human umbilical vein endothelial cells (HUVEC), obtained from Clonetics (San Diego, Calif., USA), were cultured in EGM medium (Clonetics, San Diego, Calif., USA) supplemented with 2% FBS, […], […] hydrocortisone, […] gentamicin, 3 mg/ml BBE (bovine brain extract) at 37° C. in a 5% CO2 humidified atmosphere.
(§2) Electrophoretic Mobility Shift Assay (EMSA). For nuclear extract preparation, cells (2×10^6 cells/sample) were lysed in hypotonic lysis buffer (10 mM NaCl, 3 mM MgCl2, 10 mM Tris-HCl pH 7.8, 0.5% NP40, 1 mM DTT) and then in high-salt extraction buffer (50 mM Tris-HCl, 400 mM NaCl, 1 mM EDTA, 1 mM EGTA, 1% Triton, 0.5% NP-40, 10% glycerol, 1 mM DTT, 1 mM PMSF, 0.5 μg/ml leupeptin, 0.7 μg/ml pepstatin, 0.2% aprotinin). Equal amounts of protein (6 μg/sample) were incubated with ^32P-labeled κB-DNA probe followed by analysis of DNA-binding activity by EMSA. Binding reactions were performed as described (11). Complexes were analyzed by nondenaturing 4% polyacrylamide gel electrophoresis. […] Quantitative evaluation of NF-κB-κB complex formation was determined by Typhoon-8600 Imager (Molecular Dynamics), using ImageQuant software (MDP analysis). […]
In general terms: Mobility shift assays separate free from complexed probe on a gel.

For data set [2], the system named is Human endothelial cells (HUVEC). Description: HUVEC DNA synthesis (BrdU incorporation). The class given is cell-based. To be noted: 48 hours, read-out: IC50 endothelial cell proliferation (BrdU DNA synthesis). Here is the method:
as §1
Compounds. CTM-208 was dissolved in absolute ethanol or DMSO (0.1 M stock solution), stored at −20° C., and diluted in the culture medium immediately before use. […]
DNA synthesis. […] DNA synthesis was evaluated by incorporation of 5-bromo-2-deoxy-uridine (BrdU) into cellular DNA 48 hours after the addition of the compounds. The amount of BrdU integrated into DNA was evaluated by using a monoclonal antibody against BrdU (cell proliferation ELISA colorimetric assay, Roche). Absorbance (l: 405 nm) was measured using a Victor microtiter plate reader (Wallac), and data were analyzed using the Allfit program.
Effect of CTM-208 on human endothelial cell proliferation. […] At 48 hours after the addition of the compounds, DNA synthesis was evaluated by incorporation of 5-bromo-2-deoxy-uridine (BrdU) into cellular DNA. […]
(In general: Dividing cells build labelled thymidine or BrdU into new DNA.)

In data set [3] the test system is human breast cancer MDA-MB-231 cells. The data set is described as follows: DNA fragmentation (Cell-Death-Detection ELISA), MDA-MB-231 cells. The class given is cell-based. As to conditions: 5 μM, 48 hour incubation, FIG. 3. On the procedure: (§3) Cell Culture and Treatments. Human breast cancer MDA-MB-231, human melanoma SK-MEL-28, and human Burkitt lymphoma HS-Sultan cell lines, obtained from ATCC (Manassas, Va.), were grown at 37° C. in 5% CO2 and 95% humidified air in cell culture medium containing 10% fetal calf serum, 2 mM glutamine and antibiotics ([…] penicillin and 0.1 mg/ml streptomycin) (Life Technologies, Inc.). Each compound to be assayed was dissolved in absolute ethanol and diluted in the culture medium immediately before use. Control cells received the same amount of ethanol diluent. Cells were incubated with the assay compound or control diluent for 8 hours, unless indicated otherwise. Cell viability was determined by vital-dye exclusion assay (Trypan blue, 0.1%).
DNA Fragmentation. Cytoplasmic histone-bound DNA fragments (mono- and oligo-nucleosomes) generated during apoptosis were measured by Cell-Death-Detection ELISA kit (Roche Diagnostics, Mannheim, Germany), according to the manufacturer's instructions. Histone-associated DNA fragments were quantified spectrophotometrically using antibodies against DNA and histones in a colorimetric assay. Enrichment in cytoplasmic nucleosomes was expressed as fold-induction of levels in untreated controls. […] At 5 μM CTM-208, apoptosis was increased more than 35-fold over the untreated control.
On the technique in general: An ELISA detects its analyte on a solid surface through an enzyme-linked reagent.

A further data set concerns human endothelial cells. Description: LD50 in human endothelial cells. It is filed as cell-based.
The subject of data set [4] is Human keratinocytes (HaCaT). Description: HaCaT cell proliferation assay (viable cell count). It is filed as cell-based. To be noted: 48 hours after treatment. On the procedure:
as §1
Compounds. CTM-208 was dissolved in absolute ethanol or DMSO (0.1 M stock solution), stored at −20° C., and diluted in the culture medium immediately before use. Control cells received the same amount of DMSO diluent that had no effect on cell proliferation at the concentrations tested. Methotrexate was dissolved in DMSO. […]
Cell Proliferation Assay. […] At 48 hours after the addition of the compounds, cell proliferation was determined by counting the number of viable cells in a hemocytometer. Cell viability was determined by the Trypan blue vital dye exclusion technique. IC50 values on the increase in the number of cells over the number of seeded cells were calculated at 48 hours after treatment.
Effect of CTM-208 on human keratinocyte proliferation. […] At 48 hours after the addition of the compounds, cell proliferation was determined by counting the number of viable cells in a hemocytometer. […]

The test system of data set [5] is human melanoma SK-MEL-28 cells. The data set is described as follows: Annexin V staining apoptosis, SK-MEL-28 cells. It is filed as cell-based. To be noted: 24 hour incubation, in comparison to Cisplatin, Etoposide and Vinblastine, FIG. 2. On the procedure: as §3
Flow Cytometry. For Annexin V staining, cells were washed once with PBS and resuspended in staining buffer (10 mM HEPES pH 7.4, 140 mM NaCl, 2.5 mM CaCl) with […] of AnnexinV-PI (AnnexinV-FITC, Becton-Dickinson). After 15 minutes of incubation in the dark, cells were directly analyzed in a FACScan (Becton-Dickinson). Cells were evaluated with CellQuest Program (Becton-Dickinson). Data were plotted using a histogram algorithm, in which the intensities of Annexin V-positive cells were represented as percent of untreated control. […]

In data set [6] the test system is human Burkitt lymphoma HS-Sultan cells. The data set is described as follows: Annexin V staining apoptosis, HS-Sultan cells. It is filed as cell-based. Here is the method: as §3
Flow Cytometry. For Annexin V staining, cells were washed once with PBS and resuspended in staining buffer (10 mM HEPES pH 7.4, 140 mM NaCl, 2.5 mM CaCl) with […] of AnnexinV-PI (AnnexinV-FITC, Becton-Dickinson). After 15 minutes of incubation in the dark, cells were directly analyzed in a FACScan (Becton-Dickinson). Cells were evaluated with CellQuest Program (Becton-Dickinson). Data were plotted using a histogram algorithm, in which the intensities of Annexin V-positive cells were represented as percent of untreated control. Exemplary data obtained from human Burkitt lymphoma HS-Sultan cells and human melanoma SK-MEL-28 cells (24 hour incubation for SK-MEL-28 cells) are provided in FIGS. 1 and 2, respectively.
Electrophoretic Mobility Shift Assay (EMSA). […] Complexes were analyzed by nondenaturing 4% polyacrylamide gel electrophoresis. […] Quantitative evaluation of NF-κB-κB complex formation was determined by Typhoon-8600 Imager (Molecular Dynamics), using ImageQuant software (MDP analysis). […]

Data set [7] has as its system NF-κB. The data set is described as follows: EMSA of NF-κB DNA-binding activity in HS-Sultan cells. It is filed as cell-based. As to conditions: Homo sapiens, FIG. 6. On the procedure:
as §3
as §2, with “Equal amounts of protein (6 μg/sample) were incubated with ^32P-labeled κB-DNA probe followed by analysis of DNA-binding activity by EMSA. Binding reactions were performed as described (11).” left out

Data set [8] deals with HSF. The data set is described as follows: EMSA of HSF induction in human keratinocytes. The class given is cell-based.
For data set [9], the system named is NF-κB. The data set is described as follows: EMSA of NF-κB DNA-binding activity in human keratinocytes. It is filed as cell-based. As to conditions: Keratinocyte, read-out: NF-κB.
Procedure: Electrophoretic Mobility Shift Assay (EMSA). For nuclear extract preparation, cells (2×10^6 cells/sample) were lysed in hypotonic lysis buffer (10 mM NaCl, 3 mM MgCl2, 10 mM Tris-HCl pH 7.8, 0.5% NP40, 1 mM DTT) and then in high-salt extraction buffer (50 mM Tris-HCl, 400 mM NaCl, 1 mM EDTA, 1 mM EGTA, 1% Triton, 0.5% NP-40, 10% glycerol, 1 mM DTT, 1 mM PMSF, 0.5 μg/ml leupeptin, 0.7 μg/ml pepstatin, 0.2% aprotinin). Equal amounts of protein (6 μg/sample) were incubated with ^32P-labeled κB-DNA probe followed by analysis of DNA-binding activity by EMSA. Binding reactions were performed as described (11). Complexes were analyzed by nondenaturing 4% polyacrylamide gel electrophoresis. Specificity of protein-DNA complexes was verified by immunoreactivity with polyclonal antibodies specific for the NF-κB subunit, p65/RelA. Quantitative evaluation of NF-κB-κB complex formation was determined by Typhoon-8600 Imager (Molecular Dynamics), using ImageQuant software (MDP analysis).
Data set [10] deals with HSF. The data set is described as follows: EMSA of HSF induction in human endothelial cells. It is filed as cell-based.
The subject of data set [11] is NF-κB. To be noted: chemical or physiological inducers; cited from earlier work.
The test system of the next data set is HSF1. To be noted: cited from earlier work.

`COC(=O)[C@H](CSC1CC(=O)/C(=C/c2ccccc2)CC1O[Si](C)(C)C(C)(C)C)NC(=O)OC(C)(C)C` (stereo partly drawn) [CTM-208, (R)-2-tert-Butoxycarbonylamino-3-[4E-benzylidene-2(tert-butyl-dimethylsilanyloxy)-5-oxo-cyclohexylsulfanyl]-propionic acid methyl ester]: the values for the LD50 with human keratinocytes and in the data set with human endothelial cells were 400 µM and greater than 400 µM, respectively. Also, the IC50 came out at 5000 nM in the data set with NF-κB [1]; 1600 nM in data set [2]; 2000 nM in data set [4]; 200 nM with NF-κB [7]; 19000 nM in the data set with NF-κB [9]. In addition, in [3], the “apoptosis increase over untreated control (cytoplasmic nucleosome enrichment)” value is on record as “more than 35 fold”. Besides, the “induction of apoptosis (Annexin V-positive cells)” value is on record as “potent inducer of apoptosis” in [5] and “potent inducer of apoptosis” in data set [6] (in comparison to 15d-PGJ2, FIG. 1). Also, the apoptosis result in [6] (0.5 μM, 8 hour treatment) is listed as “approximately 90%”. Besides, the “concentration at which induction of apoptosis starts to be effective” value in data set [6] (Annexin V-PI staining, FIG. 7) was found to be 0.1 µM. Further, the “concentration for HSF induction” value in the data set on HSF [8] was found to be 1.5 µM. In the data set with HSF [10], the “effective concentration for HSF induction” value is less than 1 µM.
In the data set on human keratinocytes, `CN(Cc1cnc2nc(N)nc(N)c2n1)c1ccc(C(=O)N[C@@H](CCC(=O)O)C(=O)O)cc1` [Methotrexate, reference compound] registered an LD50 greater than 400 µM. The IC50 in data set [4] is less than 100 nM. Moreover, the “concentration for HSF induction” value in the data set with HSF [8] is greater than 400 µM.
In the case of `O=C1C=CCC1` [cyclopent-2-en-1-one], in the data set with NF-κB [11], the “concentration able to block NF-κB activation” value was 125 to 500 µM. Also, the “concentration able to activate HSF1 and trigger synthesis of HSP70” value in the data set with HSF1 is 125 to 500 µM.

Values taken from US8367735B2, “Pharmaceutical compositions” (Crawford Healthcare Holdings Limited, priority 2006, dated 2013).
